From article PMC8402547, “In Vitro and In Vivo Analysis of Ochratoxin A-Derived Glucuronides and Mercapturic Acids as Biomarkers of Exposure” (Toxins, 2021)
Read-outs that look alike come from different tables or passages of the source.

Experiments:
[1] = human urine samples; cited from earlier work
[2] = 0.5 mg/kg bw oral, within 96 h, cited from earlier work
[3] = In vitro incubation of OTA with liver S9 and UDP-glucuronic acid (glucuronide formation); assay type: in vitro ADME, rat
Procedure: (§1) Liver S9 fractions from rats (Sprague-Dawley, male, 97 donors, 20 mg/mL) and humans (mixed genders, 50 donors, 20 mg/mL) were obtained from XenoTech (Kansas City, USA). S9 fractions from Goettingen® minipigs and rabbits were prepared in-house based on a modified protocol from Hubbard et al. (1985). Rabbit liver (Blue Vienna x German Giant, female) was obtained from ImmonuGlobe (Himmelstadt, Germany), whereas minipig liver (Goettingen® minipig, male, 42.4 kg bw) was obtained from the University Goettingen, Department of Animal Science.
(§2) For analysis of OTA-derived glucuronides, liver S9 fractions (4 mg/mL) of rats, rabbit, minipigs and humans were incubated with OTA (0.1 mM), uridine-diphosphate-glucuronic acid (5 mM) and magnesium chloride (5 mM) in 100 mM phosphate-buffered saline (pH 7.4) in a total volume of 300 µL at 37 °C for two hours. Control incubations were carried out in the absence of uridine-diphosphate-glucuronic acid. […] Ten microliters (10 µL) of each sample was injected into the LC–MS system and analyzed using the method described below. […]
(§3) The API 2000/Q-Trap mass spectrometer was operated with a Turbo Ion Spray source in negative ion mode with a voltage of −4000 V. Spectral data were recorded with N2 as the heater gas at 450 °C and as the collision gas (CAD = −2) in multiple reaction monitoring mode (MRM).

[4] = as above; assay type: in vitro ADME, human
Procedure: as §1, §2, §3

[5] = as above; assay type: in vitro ADME; settings: OTA 0.1 mM, UDPGA 5 mM, 37 °C
Procedure: as §1, §2, §3

Compound | Concentration in human urine following enzymatic hydrolysis as compared to without hydrolysis [1] | Fraction of orally administered dose excreted in urine ([2]; female rats) [%] | Fraction of orally administered dose excreted in urine ([2]; male rats) [%] | Formation of OTA glucuronide (m/z transitions 578/402 and 578/358) ([3]; rat liver S9 4 mg/mL, OTA 0.1 mM, UDPGA 5 mM, 37 °C) | OTA-glucuronide formed as compared to rabbit and minipig samples (signal intensities) ([3]; rat liver S9 vs rabbit and minipig liver S9) | Formation of OTA glucuronide (m/z transitions 578/402 and 578/358) ([4]; human liver S9 4 mg/mL, OTA 0.1 mM, UDPGA 5 mM, 37 °C) | OTA-glucuronide formed as compared to rabbit and minipig samples (signal intensities) ([4]; human liver S9 vs rabbit and minipig liver S9) | Formation of OTA glucuronide (m/z transitions 578/402 and 578/358) ([5]; minipig liver S9 4 mg/mL) | Formation of OTA glucuronide (m/z transitions 578/402 and 578/358) ([5]; rabbit liver S9 4 mg/mL)
C[C@@H]1Cc2c(Cl)cc(C(=O)N[C@@H](Cc3ccccc3)C(=O)O)c(O)c2C(=O)O1 [OTA, Ochratoxin A] | up to 6 fold | 5.2 | 2.1 |  |  |  |  |  | 
CC1Cc2c(Cl)cc(C(=O)NC(Cc3ccccc3)C(=O)OC3OC(C(=O)O)C(O)C(O)C3O)c(O)c2C(=O)O1 (stereo not drawn) [OTA-Glucuronide] |  |  |  | detected | 5–10 times | detected | 5–10 times | detected | detected
